{
  "source": "patent US20110130380A1",
  "about": "“Heteroaryl Kinase Inhibitors” (priority 2009, published 2011)",
  "data": [
    {"target": "Cdk9/cyclinT1 (Homo sapiens, UniProt P50750)", "sequence (P50750 whole entry)": "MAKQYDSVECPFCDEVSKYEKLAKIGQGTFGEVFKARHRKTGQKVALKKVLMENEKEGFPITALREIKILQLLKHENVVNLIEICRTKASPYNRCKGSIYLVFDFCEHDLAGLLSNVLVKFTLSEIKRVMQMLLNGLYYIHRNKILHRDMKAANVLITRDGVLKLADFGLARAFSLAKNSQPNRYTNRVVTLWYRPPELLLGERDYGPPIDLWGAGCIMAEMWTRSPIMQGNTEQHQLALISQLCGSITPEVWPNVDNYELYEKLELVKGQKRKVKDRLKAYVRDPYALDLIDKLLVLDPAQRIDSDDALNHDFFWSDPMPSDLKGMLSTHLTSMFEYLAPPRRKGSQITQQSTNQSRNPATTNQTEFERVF", "sequence (O60563 whole entry partner)": "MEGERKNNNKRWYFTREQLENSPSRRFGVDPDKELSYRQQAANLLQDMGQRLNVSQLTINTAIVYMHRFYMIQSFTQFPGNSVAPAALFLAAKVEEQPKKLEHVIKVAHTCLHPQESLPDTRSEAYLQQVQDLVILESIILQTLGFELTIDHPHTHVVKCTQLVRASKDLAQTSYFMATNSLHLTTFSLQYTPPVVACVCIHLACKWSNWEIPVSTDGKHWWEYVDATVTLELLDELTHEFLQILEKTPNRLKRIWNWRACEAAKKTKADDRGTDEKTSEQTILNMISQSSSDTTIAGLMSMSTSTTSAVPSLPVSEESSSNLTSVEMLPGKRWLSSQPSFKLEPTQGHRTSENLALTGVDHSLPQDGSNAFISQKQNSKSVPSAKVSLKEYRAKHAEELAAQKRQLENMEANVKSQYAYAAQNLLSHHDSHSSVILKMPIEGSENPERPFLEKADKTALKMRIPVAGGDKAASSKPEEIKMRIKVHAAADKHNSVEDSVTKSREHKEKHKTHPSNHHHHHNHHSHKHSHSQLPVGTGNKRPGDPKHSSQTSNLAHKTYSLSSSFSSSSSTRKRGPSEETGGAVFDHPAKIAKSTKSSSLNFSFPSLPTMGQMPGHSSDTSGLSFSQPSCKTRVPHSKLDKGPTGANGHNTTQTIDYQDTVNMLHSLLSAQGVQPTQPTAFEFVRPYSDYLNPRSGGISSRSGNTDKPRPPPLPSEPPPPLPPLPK", "experiment": "Cdk9/cyclinT1 IMAP Protocol (fluorescence polarization kinase assay)", "details": "Cdk9_cyclinT1_IC50, Table V; generated using one of the two Cdk9/cyclinT1 assays (IMAP or Alpha Screen), not stated which; ATP 6 uM", "units": {"IC50": "nM"}, "values": [
      {"compound": "CC1(C)C[C@H](CNc2cccc(-c3cc(NC(=O)[C@@H]4CCNC4)ncc3Cl)n2)CCO1", "note": "[Example 259, (R)-Pyrrolidine-3-carboxylic acid {5′-chloro-6-[((R)-2,2-dimethyl-tetrahydro-pyran-4-ylmethyl)-amino]-[2,4′]bipyridinyl-2′-yl}-amide]", "IC50": 1},
      {"compound": "C[C@@H]1CC(CNc2cccc(-c3cc(NC(=O)C4CNCCOC4)ncc3Cl)n2)C[C@H](C)O1", "note": "(stereo partly drawn) [Example 203, [1,4]Oxazepane-6-carboxylic acid {5′-chloro-6-[((2R,6S)-2,6-dimethyl-tetrahydro-pyran-4-ylmethyl)-amino]-[2,4′]bipyridinyl-2′-yl}-amide]", "IC50": 3},
      {"compound": "O=C(Nc1cc(-c2cccc(N3CCC(O)CC3)n2)c(Cl)cn1)[C@@H]1CCCNC1", "note": "[Example 43, (R)-Piperidine-3-carboxylic acid (5″- chloro-4-hydroxy-3,4,5,6-tetrahydro-2H-[1,2′;6′,4″]terpyridin-2″- yl)-amide]", "IC50": 57},
      {"compound": "N[C@@H]1CCC[C@H](C(=O)Nc2cc(-c3cccc(NCC4CCOCC4)n3)c(Cl)cn2)C1", "note": "(racemic) [Example 59, (1S,3R)-/(1R,3S)-3-Amino-cyclohexanecarboxylic acid {5′-chloro-6-[(tetrahydro-pyran-4-ylmethyl)-amino]-[2,4′]bipyridinyl-2′-yl}-amide]", "IC50": 9},
      {"compound": "COC(=O)N1CCC[C@H](C(=O)Nc2cc(-c3cccc(NCC4CCOCC4)n3)c(Cl)cn2)C1", "note": "[Example 90, (S)-3-{5′-Chloro-6-[(tetrahydro-pyran-4-ylmethyl)-amino]-[2,4′]bipyridinyl-2′-ylcarbamoyl}-piperidine-1-carboxylic acid methyl ester]", "IC50": 8},
      {"compound": "CO[C@H]1CNC[C@@H]1C(=O)Nc1cc(-c2nc(NCC3CCOCC3)c(F)cc2Cl)c(Cl)cn1", "note": "[Example 181, (3S,4R)-4-Methoxy-pyrrolidine-3-carboxylic acid {3,5′-dichloro-5-fluoro-6-[(tetrahydro-pyran-4-ylmethyl)-amino]-[2,4′]bipyridinyl-2′-yl}-amide]", "IC50": 1},
      {"compound": "O=C(Nc1cc(-c2cccc(NCC3CCOCC3)n2)c(Cl)cn1)[C@@H]1CN[C@H](CF)C1", "note": "[Example 178, (3S,5S)-5-Fluoromethyl-pyrrolidine-3-carboxylic acid {5′-chloro-6-[(tetrahydro-pyran-4-ylmethyl)-amino]-[2,4′]bipyridinyl-2′-yl}-amide]", "IC50": 1},
      {"compound": "CN(C)c1cccc(-c2cc(NC(=O)[C@@H]3CCCNC3)ncc2Cl)n1", "note": "[Example 36, (R)-Piperidine-3-carboxylic acid (5′-chloro-6-dimethylamino-[2,4′]bipyridinyl-2′-yl)-amide]", "IC50": 102},
      {"compound": "CS(=O)(=O)N[C@H]1CC[C@@H](C(=O)Nc2cc(-c3nc(NCC4CCOCC4)ccc3Cl)c(Cl)cn2)C1", "note": "[Example 110, (1R,3S)-3-Methanesulfonylamino-cyclopentanecarboxylic acid {3,5′-dichloro-6-[(tetrahydro-pyran-4-ylmethyl)-amino]-[2,4′]bipyridinyl-2′-yl}-amide]", "IC50": "< 8"},
      {"compound": "O=C(Nc1cc(-c2nc(NCC3CCOCC3)ccc2F)c(Cl)cn1)[C@H]1CNCCO1", "note": "[Example 158, (R)-Morpholine-2-carboxylic acid {5′-chloro-3-fluoro-6-[(tetrahydro-pyran-4-ylmethyl)-amino]-[2,4′]bipyridinyl-2′-yl}-amide]", "IC50": 5},
      {"compound": "O=C(Nc1cc(-c2cccc(NCC3CCOCC3)n2)c(Cl)cn1)C1(F)CCCNC1", "note": "(stereo not drawn) [Example 95, 3-Fluoro-piperidine-3-carboxylic acid {5′-chloro-6-[(tetrahydro-pyran-4-ylmethyl)-amino]-[2,4′]bipyridinyl-2′-yl}-amide]", "IC50": 167},
      {"compound": "O=C(Nc1cc(-c2cccc(NCC3CCCOC3)n2)c(Cl)cn1)[C@@H]1CCCNC1", "note": "(stereo partly drawn) [Example 18, (R)-Piperidine-3-carboxylic acid {5′-chloro-6-[(tetrahydro-pyran-3-ylmethyl)-amino]-[2,4′]bipyridinyl-2′-yl}-amide]", "IC50": "< 8"},
      {"compound": "CC(=O)N1CCC[C@@H](C(=O)Nc2cc(-c3cccc(NCC4CCOCC4)n3)c(Cl)cn2)C1", "note": "[Example 82, (R)-1-acetyl-piperidine-3-carboxylic acid {5′-chloro-6-[(tetrahydro-pyran-4-ylmethyl)-amino]-[2,4′]bipyridinyl-2′-yl}-amide]", "IC50": 631},
      {"compound": "CO[C@H]1CNC[C@@H](C(=O)Nc2cc(-c3cccc(NCC4CCOCC4)n3)c(Cl)cn2)C1", "note": "(single isomer, unassigned) [Example 212]", "IC50": 171},
      {"compound": "C[C@@H]1CC[C@@H](C(=O)Nc2cc(-c3cccc(NC[C@H]4CCOC(C)(C)C4)n3)c(Cl)cn2)CN1", "note": "(mixture of isomers) [Example 227, (3R,6R)-/(3S,6S)-6-Methyl-piperidine-3-carboxylic acid {5′-chloro-6-[((S)-2,2-dimethyl-tetrahydro-pyran-4-ylmethyl)-amino]-[2,4′]bipyridinyl-2′-yl}-amide]", "IC50": 1},
      {"compound": "O=C(Nc1cc(-c2ccc(F)c(NCC3CCOCC3)n2)c(Cl)cn1)[C@H]1CNCCO1", "note": "[Example 205, (R)-Morpholine-2-carboxylic acid {5′-chloro-5-fluoro-6-[(tetrahydro-pyran-4-ylmethyl)-amino]-[2,4′]bipyridinyl-2′-yl}-amide]", "IC50": 5},
      {"compound": "CC(C)C(=O)Nc1cc(-c2nc(NCC3CCOCC3)ccc2Cl)c(Cl)cn1", "note": "[Example 86, N-{3,5′-Dichloro-6-[(tetrahydro-pyran-4-ylmethyl)-amino]-[2,4′]bipyridinyl-2′-yl}-isobutyramide]", "IC50": "< 8"},
      {"compound": "O=C(Nc1cc(-c2cccc(NCC3CCOCC3)n2)c(Cl)cn1)C1(F)CCCNC1", "note": "(single isomer, unassigned) [Example 118]", "IC50": 214},
      {"compound": "CO[C@@H]1CNC[C@H](C(=O)Nc2cc(-c3cccc(NCC4CCOCC4)n3)c(Cl)cn2)C1", "note": "(racemic) [Example 184, (3R,5S)-/(3S,5R)-5-Methoxy-piperidine-3-carboxylic acid {5′-chloro-6-[(tetrahydro-pyran-4-ylmethyl)-amino]-[2,4′]bipyridinyl-2′-yl}-amide]", "IC50": 11},
      {"compound": "O=C(Nc1cc(-c2cccc(NCc3cc(F)cc(F)c3)n2)c(Cl)cn1)[C@@H]1CCCNC1", "note": "[Example 80, (R)-Piperidine-3-carboxylic acid [5′-chloro-6-(3,5-difluoro-benzylamino)-[2,4′]bipyridinyl-2′-yl]-amide]", "IC50": "< 8"},
      {"compound": "O=C(Nc1cc(-c2cccc(NCC3CCOCC3)n2)c(Cl)cn1)C1CCOCC1", "note": "[Example 63, Tetrahydro-pyran-4-carboxylic acid {5′-chloro-6-[(tetrahydro-pyran-4-ylmethyl)-amino]-[2,4′]bipyridinyl-2′-yl}-amide]", "IC50": 27},
      {"compound": "CC1(C)C[C@H](CNc2ccc(Cl)c(-c3cc(NC(=O)[C@H]4CNCCO4)ncc3Cl)n2)CCO1", "note": "(single isomer, unassigned) [Example 156]", "IC50": 4}
    ]},
    {"target": "Cdk9/cyclinT1 (Homo sapiens, UniProt P50750)", "experiment": "Cdk9/cyclinT1 IMAP Protocol (fluorescence polarization kinase assay)", "details": "Cdk9_cyclinT1_IC50, generated using one of the two Cdk9/cyclinT1 assays (IMAP or Alpha Screen), not specified per value; ATP 6 uM", "units": {"IC50": "nM"}, "values": [
      {"compound": "O=C(Nc1cc(-c2cc(NCC3CCOCC3)cnc2Cl)c(Cl)cn1)C1CNCCOC1", "note": "(stereo not drawn) [Example 316, [l,4]Oxazepane-6-carboxylic acid {2,5′-dichloro-5-[(tetrahydro-pyran-4-ylmethyl)-amino]-[3,4′]bipyridinyl-2′-yl}-amide]", "IC50": 6},
      {"compound": "O=C(Nc1cc(-c2cccnc2)c(Cl)cn1)[C@@H]1CCCNC1", "note": "[Example 305, (R)-Piperidine-3-carboxylic acid (5′-chloro-[3,4′]bipyridinyl-2′-yl)-amide]", "IC50": 376}
    ]}
  ]
}
